Source: US4559323A, “A41030 Antibiotics” (Eli Lilly and Company, priority 1984, dated 1985)
Values after ≈ are worked out from the molar mass of the structure shown. Like-named read-outs stand apart in the source and are kept apart here.

How the values were obtained:
[1] = Electrometric titration (pKa); type: physicochemical; details: electrometric titration in 66% dimethylformamide in water
Hemophilus influenzae = assay: Agar-dilution MIC; type: cell-based; details: 24 hours
Streptococcus pyogenes = assay: Agar-dilution MIC; type: cell-based; details: 24 hours, Streptococcus pyogenes C203
Text: (§1) The agar-dilution procedure described by the International Collaborative study (ICS) group was used to determine the minimum inhibitory concentrations (MIC's).

[2] = test system: Streptococcus sp. (Group D); assay: Agar-dilution MIC; type: cell-based; details: 24 hours
Text: as §1

Bacteroides fragilis = assay: Agar-dilution MIC (anaerobes); type: cell-based
Text: as §1

Bacteroides corrodens [3] = assay: Agar-dilution MIC (anaerobes); type: cell-based; details: Table 12; 24-hour; B. corrodens 1874
Text: (§2) The A41030 antibiotics, factors A, B, and C, are active against a genus of anaerobic bacteria identified as Bacteroides sp., the 24-hour MIC values being determined by the agar-dilution method, and are set forth in Table 12, which follows.

Bacteroides vulgatis [4] = assay: Agar-dilution MIC (anaerobes); type: cell-based; details: Table 12; 24-hour; B. vulgatis 1563
Text: as §2

B. thetaiotaomicron = type: cell-based
Text: as §1

Clostridium difficile [5] = type: cell-based; details: Table 16
Text: The A41030 antibiotic factors A, B, C, D, E, F, and G, are also active against a number of strains of Clostridium difficile, as determined by the agar-dilution method.

Clostridium perfringens = type: cell-based; details: Table 14; Clostridium perfringens 81
Clostridium septicum = assay: Agar-dilution MIC (anaerobes); type: cell-based; details: Table 14; Clostridium septicum 1128
Peptococcus prevoti = assay: Agar-dilution MIC (anaerobes); type: cell-based
[6] = test system: Peptostreptococcus anaerobius; assay: Agar-dilution MIC (anaerobes); type: cell-based
[7] = test system: Peptostreptococcus intermedius; assay: Agar-dilution MIC (anaerobes); type: cell-based
[8] = test system: Bacteroides melaninogenicus; assay: Agar-dilution MIC (anaerobes); type: cell-based; details: Table 14; Bacteroides melaninogenicus 2736
Fusobacterium symbiosum = assay: Agar-dilution MIC (anaerobes); type: cell-based; details: Table 14; Fusobacterium symbiosum 1470
[9] = test system: Fusobacterium necrophorum; assay: Agar-dilution MIC (anaerobes); type: cell-based; details: Table 14; Fusobacterium necrophorum 6054A
Salmonella typhi = assay: Agar-dilution MIC; type: cell-based; details: Table 17, 24 hours
S. pyogenes = assay: In vivo oral activity against S. pyogenes in mice
Bacteroides corrodens [10] = assay: Agar-dilution MIC (anaerobes); type: cell-based; details: Table 14; Bacteroides corrodens 1874
Bacteroides vulgatis [11] = assay: Agar-dilution MIC (anaerobes); type: cell-based; details: Table 14; Bacteroides vulgatis 1211
Clostridium difficile [12] = type: cell-based; details: Table 14; Clostridium difficile 2994

With `N[C@H]1C(=O)N[C@@H]2Cc3ccc(c(Cl)c3)Oc3cc4cc(c3O)Oc3ccc(cc3Cl)[C@@H](O)[C@@H]3NC(=O)C(NC(=O)[C@@H]4NC(=O)[C@@H](NC2=O)c2cc(O)cc(c2)Oc2cc1ccc2O)c1ccc(O)c(c1)-c1c(O)cc(O)cc1[C@@H](C(=O)O)NC3=O` [A41030 factor B] the “pKa, first titratable group” value [1] was “about 5.6”, the “pKa, second titratable group” value [1] was about 7.5 and the MIC (Hemophilus influenzae; Table 17, Haemophilus influenzae 251) was 2 µg/mL (≈ 1.67 µM). The MIC (Hemophilus influenzae; Table 17, Haemophilus influenzae Brun) was 8 µg/mL (≈ 6.67 µM), the MIC (Hemophilus influenzae; Table 18, Haemophilus influenzae 76) was 4 µg/mL (≈ 3.34 µM) and the MIC (Hemophilus influenzae; Table 18, Haemophilus influenzae 312) was 4 µg/mL (≈ 3.34 µM). For the same compound, the MIC (Hemophilus influenzae; Table 18, Haemophilus influenzae 4842) was 4 µg/mL (≈ 3.34 µM), the MIC (Hemophilus influenzae; Table 18, Haemophilus influenzae 16836) was 4 µg/mL (≈ 3.34 µM) and the MIC (Hemophilus influenzae; Table 18, Haemophilus influenzae Bond) was 4 µg/mL (≈ 3.34 µM). For the same compound, the MIC (Hemophilus influenzae; Table 18, Haemophilus influenzae C.L.) was 8 µg/mL (≈ 6.67 µM), the MIC (Hemophilus influenzae; Table 18, Haemophilus influenzae Mx366) was 4 µg/mL (≈ 3.34 µM) and the MIC (Hemophilus influenzae; Table 18, Haemophilus influenzae Mx371) was 4 µg/mL (≈ 3.34 µM). It also gave an MIC (Streptococcus pyogenes; Table 17) of 0.25 µg/mL (≈ 0.209 µM), an MIC (Streptococcus pyogenes; Table 18) of 0.125 µg/mL (≈ 0.104 µM) and an MIC ([2]; Table 17, Streptococcus sp. Group D 9960) of 1 µg/mL (≈ 0.834 µM). It also gave an MIC ([2]; Table 17, Streptococcus sp. Group D X66) of 1 µg/mL (≈ 0.834 µM), an MIC ([2]; Table 18, Streptococcus sp. Group D 2041) of 0.5 µg/mL (≈ 0.417 µM) and an MIC ([2]; Table 18, Streptococcus sp. Group D 2058) of 0.5 µg/mL (≈ 0.417 µM). For the same compound, the MIC ([2]; Table 18, Streptococcus sp. Group D 8043) was 0.25 µg/mL (≈ 0.209 µM), the MIC ([2]; Table 18, Streptococcus sp. Group D 9901) was 1 µg/mL (≈ 0.834 µM) and the MIC ([2]; Table 18, Streptococcus sp. Group D 9960) was 0.5 µg/mL (≈ 0.417 µM). For the same compound, the MIC ([2]; Table 18, Streptococcus sp. Group D 12253F) was 0.5 µg/mL (≈ 0.417 µM), the MIC ([2]; Table 18, Streptococcus sp. Group D Mx161) was 0.25 µg/mL (≈ 0.209 µM) and the MIC ([2]; Table 18, Streptococcus sp. Group D X66) was 0.25 µg/mL (≈ 0.209 µM). For the same compound, the MIC (Bacteroides fragilis; Table 12, 24-hour, B. fragilis 2) was 32 µg/mL (≈ 26.7 µM), the MIC (Bacteroides fragilis; Table 12, 24-hour, B. fragilis 9) was 32 µg/mL (≈ 26.7 µM) and the MIC (Bacteroides fragilis; Table 12, 24-hour, B. fragilis 103) was 32 µg/mL (≈ 26.7 µM). The MIC (Bacteroides fragilis; Table 12, 24-hour, B. fragilis 104) was 32 µg/mL (≈ 26.7 µM), the MIC (Bacteroides fragilis; Table 12, 24-hour, B. fragilis 106) was 32 µg/mL (≈ 26.7 µM) and the MIC (Bacteroides fragilis; Table 12, 24-hour, B. fragilis 107) was 32 µg/mL (≈ 26.7 µM). The MIC (Bacteroides fragilis; Table 12, 24-hour, B. fragilis 108) was 32 µg/mL (≈ 26.7 µM), the MIC (Bacteroides fragilis; Table 12, 24-hour, B. fragilis 110) was 64 µg/mL (≈ 53.4 µM) and the MIC (Bacteroides fragilis; Table 12, 24-hour, B. fragilis 111) was 32 µg/mL (≈ 26.7 µM). It also gave an MIC (Bacteroides fragilis; Table 12, 24-hour, B. fragilis 112) of 32 µg/mL (≈ 26.7 µM), an MIC (Bacteroides fragilis; Table 12, 24-hour, B. fragilis 113) of 32 µg/mL (≈ 26.7 µM) and an MIC (Bacteroides fragilis; Table 12, 24-hour, B. fragilis 1451) of 64 µg/mL (≈ 53.4 µM). For the same compound, the MIC (Bacteroides fragilis; Table 12, 24-hour, B. fragilis 1470) was 64 µg/mL (≈ 53.4 µM), the MIC (Bacteroides fragilis; Table 12, 24-hour, B. fragilis 1877) was 32 µg/mL (≈ 26.7 µM) and the MIC (Bacteroides fragilis; Table 12, 24-hour, B. fragilis 9032) was 32 µg/mL (≈ 26.7 µM). The MIC (Bacteroides fragilis; Table 14, Bacteroides fragilis 111) was 64 µg/mL (≈ 53.4 µM), the MIC (Bacteroides fragilis; Table 14, Bacteroides fragilis 1877) was 32 µg/mL (≈ 26.7 µM) and the MIC (Bacteroides fragilis; Table 14, Bacteroides fragilis 1936B) was 32 µg/mL (≈ 26.7 µM). It also gave an MIC (Bacteroides corrodens [3]) of 32 µg/mL (≈ 26.7 µM), an MIC (Bacteroides vulgatis [4]) of 32 µg/mL (≈ 26.7 µM) and an MIC (B. thetaiotaomicron; Table 12, 24-hour, B. thetaiotaomicron 1438) of 32 µg/mL (≈ 26.7 µM). The MIC (B. thetaiotaomicron; Table 12, 24-hour, B. thetaiotaomicron 1900A) was 128 µg/mL (≈ 107 µM), the MIC (B. thetaiotaomicron; Table 14, Bacteroides thetalotaomicron 1438) was 32 µg/mL (≈ 26.7 µM) and the MIC (Clostridium difficile [5]; C. difficile 78) was 0.5 µg/mL (≈ 0.417 µM). The MIC (Clostridium difficile [5]; C. difficile 107B) was 0.5 µg/mL (≈ 0.417 µM), the MIC (Clostridium difficile [5]; C. difficile 111F) was 1.0 µg/mL (≈ 0.834 µM) and the MIC (Clostridium difficile [5]; C. difficile 1153) was 1.0 µg/mL (≈ 0.834 µM). For the same compound, the MIC (Clostridium difficile [5]; C. difficile 2634) was 1.0 µg/mL (≈ 0.834 µM), the MIC (Clostridium difficile [5]; C. difficile 3424-5B) was 1.0 µg/mL (≈ 0.834 µM) and the MIC (Clostridium difficile [5]; C. difficile 3816) was 1.0 µg/mL (≈ 0.834 µM). The MIC (Clostridium difficile [5]; C. difficile 3950) was 1.0 µg/mL (≈ 0.834 µM), the MIC (Clostridium difficile [5]; C. difficile 6890) was 1.0 µg/mL (≈ 0.834 µM) and the MIC (Clostridium difficile [5]; C. difficile 8484) was 1.0 µg/mL (≈ 0.834 µM). The MIC (Clostridium difficile [5]; C. difficile A-194) was 1.0 µg/mL (≈ 0.834 µM), the MIC (Clostridium difficile [5]; C. difficile A-195) was 1.0 µg/mL (≈ 0.834 µM) and the MIC (Clostridium difficile [5]; C. difficile A-196) was 1.0 µg/mL (≈ 0.834 µM). The MIC (Clostridium difficile [5]; C. difficile A-279) was 1.0 µg/mL (≈ 0.834 µM), the MIC (Clostridium difficile [5]; C. difficile A-280) was 0.5 µg/mL (≈ 0.417 µM) and the MIC (Clostridium difficile [5]; C. difficile A-281) was 1.0 µg/mL (≈ 0.834 µM). It also gave an MIC (Clostridium difficile [5]; C. difficile WAL-2112) of 1.0 µg/mL (≈ 0.834 µM), an MIC (Clostridium difficile [5]; C. difficile WAL-3657) of 1.0 µg/mL (≈ 0.834 µM) and an MIC (Clostridium difficile [5]; C. difficile WAL-4268) of 0.5 µg/mL (≈ 0.417 µM). The MIC (Clostridium perfringens) was 0.5 µg/mL (≈ 0.417 µM), the MIC (Clostridium septicum) was 4 µg/mL (≈ 3.34 µM) and the MIC (Peptococcus prevoti; Table 14, Peptococcus prevoti 1281) was at most 0.25 µg/mL. It also gave an MIC (Peptococcus prevoti; Table 15, Pc. prevoti 1281) of 0.5 µg/mL (≈ 0.417 µM), an MIC (Peptococcus prevoti; Table 15, Pc. prevoti 1293) of 0.25 µg/mL (≈ 0.209 µM) and an MIC (Peptococcus prevoti; Table 15, Pc. prevoti 1407) of 0.5 µg/mL (≈ 0.417 µM). For the same compound, the MIC ([6]; Table 14, Peptostreptococcus anaerobius 1428) was at most 0.25 µg/mL, the MIC ([6]; Table 15, Ps. anaerobius 8) was 0.25 µg/mL (≈ 0.209 µM) and the MIC ([6]; Table 15, Ps. anaerobius 52) was 0.5 µg/mL (≈ 0.417 µM). For the same compound, the MIC ([6]; Table 15, Ps. anaerobius 59) was 0.25 µg/mL (≈ 0.209 µM), the MIC ([6]; Table 15, Ps. anaerobius 1418) was 0.06 µg/mL (≈ 0.05 µM) and the MIC ([6]; Table 15, Ps. anaerobius 1428) was 0.25 µg/mL (≈ 0.209 µM). The MIC ([6]; Table 15, Ps. anaerobius 1451) was 0.25 µg/mL (≈ 0.209 µM), the MIC ([6]; Table 15, Ps. anaerobius 1477) was 0.125 µg/mL (≈ 0.104 µM) and the MIC ([7]; Table 14, Peptostreptococcus intermedius 1264) was 0.5 µg/mL (≈ 0.417 µM). It also gave an MIC ([7]; Table 15, Ps. intermedius 1264) of at most 0.03 µg/mL, an MIC ([7]; Table 15, Ps. intermedius 1524) of 0.25 µg/mL (≈ 0.209 µM) and an MIC ([7]; Table 15, Ps. intermedius 1624) of 0.5 µg/mL (≈ 0.417 µM). The MIC [8] was 4 µg/mL (≈ 3.34 µM), the MIC (Fusobacterium symbiosum) was 1.0 µg/mL (≈ 0.834 µM) and the MIC [9] was 8 µg/mL (≈ 6.67 µM). The MIC (Salmonella typhi; Salmonella typhi 1335) was over 128 µg/mL, the MIC (Salmonella typhi; Salmonella typhi X514) was over 128 µg/mL and the “in vivo oral activity” value (S. pyogenes) was over 300 mg./kg.X2. The MIC (Bacteroides corrodens [10]) was 64 µg/mL (≈ 53.4 µM), the MIC (Bacteroides vulgatis [11]) was 32 µg/mL (≈ 26.7 µM) and the MIC (Clostridium difficile [12]) was 32 µg/mL (≈ 26.7 µM).
